# Laboratory results taken from patent US4652573A, “Calcium antagonist N-hetero ester 1,4-dihydropyridines” (Nelson Research & Development Co., priority 1985, dated 1987).
# Legend:
# [1] = target: T1, DHP Site of the Calcium Channel (Oryctolagus cuniculus, UniProt P07293); experiment: Binding Assay for Drugs Acting at the DHP Site of the Calcium Channel (3H-nitrendipine displacement, washed rabbit skeletal muscle membranes); settings: read-out: KI (moles)
# T1 construct: Washed rabbit skeletal muscle membranes; from tissue; host or cells: rabbit skeletal muscle, washed membranes (fraction 2-8×)
# T1 sequence (P07293 whole entry): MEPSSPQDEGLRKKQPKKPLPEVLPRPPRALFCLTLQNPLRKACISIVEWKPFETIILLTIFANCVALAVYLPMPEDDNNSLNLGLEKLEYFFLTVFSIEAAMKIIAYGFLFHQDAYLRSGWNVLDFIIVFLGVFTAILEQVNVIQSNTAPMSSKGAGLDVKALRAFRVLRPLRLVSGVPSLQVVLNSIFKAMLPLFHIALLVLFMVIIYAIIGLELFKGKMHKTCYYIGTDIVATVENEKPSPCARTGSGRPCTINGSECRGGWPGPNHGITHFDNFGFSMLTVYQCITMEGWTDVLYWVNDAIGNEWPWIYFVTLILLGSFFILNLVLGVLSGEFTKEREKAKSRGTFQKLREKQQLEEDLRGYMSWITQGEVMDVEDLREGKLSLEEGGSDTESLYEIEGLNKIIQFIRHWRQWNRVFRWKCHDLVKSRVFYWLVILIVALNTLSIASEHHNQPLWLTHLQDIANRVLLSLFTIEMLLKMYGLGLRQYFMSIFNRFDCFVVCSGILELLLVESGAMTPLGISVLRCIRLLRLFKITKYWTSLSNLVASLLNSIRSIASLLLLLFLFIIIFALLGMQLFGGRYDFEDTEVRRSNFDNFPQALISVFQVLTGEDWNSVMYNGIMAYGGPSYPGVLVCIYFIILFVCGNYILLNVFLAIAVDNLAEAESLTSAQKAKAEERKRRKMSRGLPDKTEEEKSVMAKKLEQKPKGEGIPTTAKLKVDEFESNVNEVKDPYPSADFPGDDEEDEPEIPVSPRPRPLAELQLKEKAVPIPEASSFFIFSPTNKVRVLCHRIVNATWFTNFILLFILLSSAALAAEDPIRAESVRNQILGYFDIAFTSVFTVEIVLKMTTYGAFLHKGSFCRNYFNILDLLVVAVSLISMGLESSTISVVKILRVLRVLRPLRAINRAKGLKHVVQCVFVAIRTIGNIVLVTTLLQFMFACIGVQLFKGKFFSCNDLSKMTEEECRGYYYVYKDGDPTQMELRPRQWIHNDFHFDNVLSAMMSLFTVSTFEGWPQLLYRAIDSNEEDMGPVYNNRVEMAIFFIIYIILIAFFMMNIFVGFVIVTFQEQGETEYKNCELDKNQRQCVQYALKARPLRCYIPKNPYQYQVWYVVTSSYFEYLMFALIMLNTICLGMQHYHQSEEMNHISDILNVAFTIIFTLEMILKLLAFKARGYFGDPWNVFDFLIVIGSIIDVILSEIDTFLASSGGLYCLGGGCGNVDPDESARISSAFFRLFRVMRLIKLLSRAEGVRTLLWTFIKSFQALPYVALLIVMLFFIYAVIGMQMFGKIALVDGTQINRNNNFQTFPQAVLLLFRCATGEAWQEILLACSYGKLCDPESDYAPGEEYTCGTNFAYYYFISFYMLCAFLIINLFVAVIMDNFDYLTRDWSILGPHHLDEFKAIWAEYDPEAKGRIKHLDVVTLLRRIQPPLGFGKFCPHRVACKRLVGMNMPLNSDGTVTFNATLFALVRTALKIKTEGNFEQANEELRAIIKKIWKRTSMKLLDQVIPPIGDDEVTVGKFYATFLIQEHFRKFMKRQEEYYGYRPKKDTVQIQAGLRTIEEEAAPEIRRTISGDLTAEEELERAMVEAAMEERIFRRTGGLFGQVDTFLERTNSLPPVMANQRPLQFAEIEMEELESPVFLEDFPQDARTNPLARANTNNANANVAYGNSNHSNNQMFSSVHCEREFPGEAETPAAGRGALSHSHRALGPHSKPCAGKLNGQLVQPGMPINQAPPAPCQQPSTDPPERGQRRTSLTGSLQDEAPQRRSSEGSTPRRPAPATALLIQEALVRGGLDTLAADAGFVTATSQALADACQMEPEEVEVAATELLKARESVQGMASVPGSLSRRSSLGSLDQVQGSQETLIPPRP
# Description: A. Binding Assay for Drugs Acting at the DHP Site of the Calcium Channel.
# The assay was carried out as described by Fairhurst et al., Life Sciences, 32, 1331 (1983). Washed rabbit skeletal muscle membranes (fraction 2-8×) were incubated for 30 minutes at 25° C. in 2 ml final volume of medium containing 12.5 mM HEPES buffer pH 7.4 and 0.5×10^-9 M ^3 H-nitrendipine having a specific activity of approximately 17 Ci/m mol.
# The incubation tubes were rapidly chilled in ice and the contents filtered through Whatman GF/B filters on a Millipore manifold, and the filters washed with 2×10 ml ice-cold HEPES buffer. The filters were placed in scintillation counting vials with 8 ml of Cytoscint cocktail, disrupted mechanically by shaking for 30 minutes and counted.
# Drugs which interact at the DHP site will reduce this specific binding in a dose-dependent manner. The assays for the compounds of this invention were made with logarithmically spaced concentrations, the data were plotted on a probit-concentration plot, and the IC50 read off. The KI of the drug was calculated by standard techniques.
# [2] = tested on: spontaneous hypertensive rats (SHR); experiment: Hypotensive Activity: systolic arterial blood pressure, indirect tail cuff method, oral administration; assay type: in vivo, rat; settings: oral 10 m mol/Kg in polyethylene glycol, positive = fall; for Mean Change in Blood Pressure (Pressure before Administration minus pressure after Administration mm Hg) 10 min: 10 min after administration; for Mean Change in Blood Pressure (Pressure before Administration minus pressure after Administration mm Hg) 20 min: 20 min after administration; for Mean Change in Blood Pressure (Pressure before Administration minus pressure after Administration mm Hg) 30 min: 30 min after administration; for Mean Change in Blood Pressure (Pressure before Administration minus pressure after Administration mm Hg) 60 min: 60 min after administration; for Mean Change in Blood Pressure (Pressure before Administration minus pressure after Administration mm Hg) 90 min: 90 min after administration; for Mean Change in Blood Pressure (Pressure before Administration minus pressure after Administration mm Hg) 120 min: 120 min after administration
# Description: Systolic arterial blood pressure was measured with the indirect tail cuff method in spontaneous hypertensive rats (SHR). The change in baseline pressure (170-210 mm Hg) was recorded at various time points following oral administration of 10 m mol/Kg of the test compound in polyethylene glycol.
Compound,Ki [1],Mean Change in Blood Pressure (Pressure before Administration minus pressure after Administration mm Hg) 10 min [2],Mean Change in Blood Pressure (Pressure before Administration minus pressure after Administration mm Hg) 20 min [2],Mean Change in Blood Pressure (Pressure before Administration minus pressure after Administration mm Hg) 30 min [2],Mean Change in Blood Pressure (Pressure before Administration minus pressure after Administration mm Hg) 60 min [2],Mean Change in Blood Pressure (Pressure before Administration minus pressure after Administration mm Hg) 90 min [2],Mean Change in Blood Pressure (Pressure before Administration minus pressure after Administration mm Hg) 120 min [2]
"CC1=C(C(=O)OCCn2c(C)ccc2C)C(c2cccc([N+](=O)[O-])c2)C(C(=O)OCCn2c(C)ccc2C)=C(C)N1 [Example 12, 2,6-Dimethyl-3,5-(2,5-dimethylpyrrolylcarbethoxy)-4-(3-nitrophenyl)-1,4-dihydropyridine]",2.5 nM,,,,,,
"COC(=O)C1=C(C)NC(C)=C(C(=O)OCCN2Cc3ccccc3C2=O)C1c1cccc([N+](=O)[O-])c1 (stereo not drawn) [Example 7, 2,6-Dimethyl-3-(2-phthalimidinocarbethoxy)-4-(3-nitrophenyl)-5-carbomethoxy-1,4-dihydropyridine]",20 nM,14 mm Hg,19 mm Hg,10 mm Hg,10 mm Hg,20 mm Hg,19 mm Hg
"COC(=O)C1=C(C)NC(C)=C(C(=O)OCCN2CCCC2=O)C1c1cccc([N+](=O)[O-])c1 (stereo not drawn) [Example 10, 2,6-Dimethyl-3-[2-(2-oxopyrrolidino)carbethoxy]-4-(3-nitrophenyl)-5-carbomethoxy-1,4-dihydropyridine]",270 nM,-17 mm Hg,-5 mm Hg,11 mm Hg,7 mm Hg,6 mm Hg,7 mm Hg
"COC(=O)C1=C(C)NC(C)=C(C(=O)OCCN2Cc3ccccc3C2)C1c1cccc([N+](=O)[O-])c1 (stereo not drawn) [Example 8, 2,6-Dimethyl-3-(2-isoindolinylcarbethoxy)-4-(3-nitrophenyl)-5-carbomethoxy-1,4-dihydropyridine]",3.5 nM,36 mm Hg,30 mm Hg,32 mm Hg,16 mm Hg,4 mm Hg,2 mm Hg
"COC(=O)C1=C(C)NC(C)=C(C(=O)OCCN2C(=O)c3ccccc3C2=O)C1c1cccc([N+](=O)[O-])c1 (stereo not drawn) [Example 2, 2,6-dimethyl-3-(2-phthalimidocarbethoxy)-4-(3-nitrophenyl)-5-carbomethoxy-1,4-dihydropyridine]",0.7 nM,9 mm Hg,10 mm Hg,10 mm Hg,6 mm Hg,0 mm Hg,0 mm Hg
"COC(=O)C1=C(C)NC(C)=C(C(=O)OCCN2C(=O)CCC2=O)C1c1cccc([N+](=O)[O-])c1 (stereo not drawn) [Example 9, 2,6-Dimethyl-3-(2-succimimidocarbethoxy)-4-(3-nitrophenyl)-5-carbomethoxy-1,4-dihydropyridine]",150 nM,36 mm Hg,10 mm Hg,5 mm Hg,3 mm Hg,19 mm Hg,11 mm Hg
"COC(=O)C1=C(C)NC(C)=C(C(=O)OCCN2C(=O)c3ccccc3C2=O)C1c1cccc(C)c1 (stereo not drawn) [Example 1, 2,6-dimethyl-3-(2-phthalimidocarbethoxy)-4-(3-methylphenyl)-5-carbomethoxy-1,4-dihydropyridine]",19.7 nM,17 mm Hg,10 mm Hg,4 mm Hg,-2 mm Hg,5 mm Hg,-4 mm Hg
"COC(=O)C1=C(C)NC(C)=C(C(=O)OCCN2C(=O)c3ccccc3C2=O)C1c1cccc(C(F)(F)F)c1 (stereo not drawn) [Example 3, 2-6-dimethyl-3-(2-phthalimidocarbethoxy)-4-(3-trifluoromethylphenyl)-5-carbomethoxy-1,4-dihydropyridine]",48 nM,,,,,,
"CC1=C(C(=O)OCCN2C(=O)c3ccccc3C2=O)C(c2cccc([N+](=O)[O-])c2)C(C(=O)OCCN2C(=O)c3ccccc3C2=O)=C(C)N1 [Example 4, 2,6-dimethyl-3,5-di(2-phthalimidocarbethoxy)-4-(3-nitrophenyl)-1,4-dihydropyridine]",2.5 nM,9 mm Hg,8 mm Hg,14 mm Hg,11 mm Hg,14 mm Hg,10 mm Hg
COC(=O)C1=C(C)NC(C)=C(C(=O)OCCCN2C(=O)c3ccccc3C2=O)C1c1cccc([N+](=O)[O-])c1 (stereo not drawn) [Example 5],4.8 nM,-5 mm Hg,-14 mm Hg,-10 mm Hg,-6 mm Hg,-6 mm Hg,-5 mm Hg
"COC(=O)C1=C(C)NC(C)=C(C(=O)OCCCCCCN2C(=O)c3ccccc3C2=O)C1c1cccc([N+](=O)[O-])c1 (stereo not drawn) [Example 6, 2,6-Dimethyl-3-(6-phthalimidocarbohexoxy)-4-(3-nitrophenyl)-5-carbomethoxy-1,4-dihydropyridine]",1.9 nM,18 mm Hg,10 mm Hg,12 mm Hg,14 mm Hg,2 mm Hg,0 mm Hg
"COC(=O)C1=C(C)NC(C)=C(C(=O)OCCN(C)Cc2ccccc2)C1c1cccc([N+](=O)[O-])c1 (stereo not drawn) [Nicardipine, nicardipine, reference compound]",1.1 nM,,,,,,
"COC(=O)C1=C(C)NC(C)=C(C(=O)OC)C1c1ccccc1[N+](=O)[O-] [Nifedipine, nifedipine, reference compound]",,37 mm Hg,36 mm Hg,20 mm Hg,15 mm Hg,4 mm Hg,4 mm Hg
